In one test the target is T1, Podocin (Mus musculus, UniProt Q91X05).
T1 construct: expressed in transfected cells; host or cells: HEK 293T
T1 sequence (Q91X05 1-385): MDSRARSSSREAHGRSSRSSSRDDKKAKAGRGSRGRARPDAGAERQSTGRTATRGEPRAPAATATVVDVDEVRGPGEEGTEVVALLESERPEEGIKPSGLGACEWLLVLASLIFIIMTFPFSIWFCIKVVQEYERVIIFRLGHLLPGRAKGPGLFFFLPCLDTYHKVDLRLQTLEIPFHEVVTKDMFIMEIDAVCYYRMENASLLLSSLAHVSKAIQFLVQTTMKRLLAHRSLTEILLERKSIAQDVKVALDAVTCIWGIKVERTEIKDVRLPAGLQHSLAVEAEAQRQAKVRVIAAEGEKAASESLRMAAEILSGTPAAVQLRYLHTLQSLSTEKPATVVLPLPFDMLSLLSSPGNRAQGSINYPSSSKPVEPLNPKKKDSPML
Briefly: Photoaffinity labeling with photoactivatable lipids in HEK 293T cells. The format is binding. The conditions noted are these: Podocin expressed in HEK 293T cells, 16 hours, UV irradiation, autoradiography. On the procedure:
(§1) Photoaffinity labeling. Experiments were performed as described infra. For labeling with [3H]photocholesterol or [3H]photophosphatidylcholine, cells were supplemented with delipidized FCS and [3H]photocholesterol-MBCD complex or 10-azi-stearate and [3H]choline were added. After 16 hours, cells were washed three times with Ca/Mg-PBS (PBS containing 0.1 mM CaCl2 and 1 mM MgCl2) and irradiated for 30 minutes in Ca/Mg-PBS with a 100 W mercury lamp. For further analysis, cells were lysed on ice for 1 h in lysis buffer (50 mM Tris-HCl pH 7.4, 140 mM NaCl, 5 mM EDTA, 0.5 mM phenylmethylsulfonyl fluoride (PMSF), 1% Triton® X-100, 0.5% deoxycholate). The lysate was centrifuged for eight minutes at 10,000×g, and the supernatant was subjected to immunoprecipitation using an anti-FLAG monoclonal antibody. Aliquots of the starting extract, the supernatants after immunoprecipitation and the immunoprecipitates were separated by SDS-PAGE (12%) followed by blotting of the proteins on PVDF membrane. Radioactivity was detected by phosphoimaging (Fujifilm BAS-2500, Fuji Photo Film Co., Ltd, Japan) using a Tritium-sensitive BAS-TR2025 imaging plate (Fuji Photo Film Co., Ltd, Japan). From the same membrane, an immunoblot was performed using anti-FLAG antibodies.
(§2) Cell Culture Studies. Most cell studies used HEK 293T cells that were grown in DMEM as described [Huber et al. (2001) J. Biol. Chem. 18:18]. […]

A further test deals with T2, MEC-2 (Caenorhabditis elegans, UniProt Q27433).
T2 construct: expressed in transfected cells; host or cells: HEK 293T
T2 sequence (Q27433 1-481): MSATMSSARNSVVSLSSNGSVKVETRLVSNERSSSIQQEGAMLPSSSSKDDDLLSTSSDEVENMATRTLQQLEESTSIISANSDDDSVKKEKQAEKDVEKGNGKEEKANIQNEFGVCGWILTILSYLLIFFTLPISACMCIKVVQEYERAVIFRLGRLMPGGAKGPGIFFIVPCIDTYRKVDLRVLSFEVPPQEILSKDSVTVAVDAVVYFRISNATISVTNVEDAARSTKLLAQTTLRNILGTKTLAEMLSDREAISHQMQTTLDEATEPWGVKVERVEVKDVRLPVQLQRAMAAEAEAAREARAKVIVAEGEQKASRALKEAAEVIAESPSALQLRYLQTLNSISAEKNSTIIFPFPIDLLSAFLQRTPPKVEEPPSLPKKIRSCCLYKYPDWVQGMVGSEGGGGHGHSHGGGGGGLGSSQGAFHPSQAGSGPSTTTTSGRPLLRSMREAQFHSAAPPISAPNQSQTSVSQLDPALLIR
Described as above. The format is binding, C. elegans. Particulars: MEC-2 expressed in HEK 293T cells, 16 hours, UV irradiation, autoradiography. As for the experimental part: as §1, §2

In test [1] the test system is mec-2 null worms expressing the mec-2(C140/174A) gene. Briefly: C. elegans gentle touch sensitivity on plates with defined sterols. The class given is in vivo. Particulars: sterol substituted for cholesterol in the growth medium, FIG. 8C. As for the experimental part:
C. elegans experiments. C. elegans strains were cultured at 20° C., assayed for touch sensitivity, and prepared for immunofluorescence as described previously [Zhang et al. (2004) Curr. Biol. 14:1888-96; Goodman et al. (2002) Nature 415:1039-42]. Briefly, C. elegans strains were cultured at 20° C. as described in the art. Strains were grown for at least three consecutive generations without starvation before carrying out the experiments described herein. Gentle touch and harsh touch sensitivity were assayed in blind tests by stimulating with an eyebrow hair or prodding with a platinum wire, respectively, as described in the art. To quantify the response, the number of responses in about 30 animals to 10 touches delivered alternately near the head and tail was recorded. Whole-mount immunofluorescence microscopy was carried out using methods known in the art.
Media for growth on limiting or no cholesterol or on other sterols were prepared from chloroform-extracted reagents as described by Matyash et al. [(2004) PLoS Biol. 2: e280].
First, a version of MEC-2 with reduced cholesterol binding was generating by mutating the predicted palmitoylation sites of the protein. Briefly, HEK293T cells were transfected with wild type MEC-2 or MEC-2(C140/174A) and labeled with [^3H]palmitic acid or [^3H]photoaffinity cholesterol. Equal expression of proteins in the lysates was confirmed on Western blots. […] Because touch sensitivity of wild-type animals was not affected by this limited cholesterol depletion, the effects observed with the palmitoylation mutant cannot be attributed to indirect effects on neuronal growth or development. Test compounds that target palmitoylation sites in PHB domain proteins can be used to modulate activity of such proteins, for example, by reducing their activity.

On to `CC(C)CCC[C@@H](C)[C@H]1CC[C@H]2[C@@H]3CC=C4C[C@@H](O)CC[C@]4(C)[C@H]3CC[C@]12C` [cholesterol], for which the “binding of photoactivatable lipid to Podocin” value on Podocin is “bound”. In addition, the “binding of photoactivatable lipid to MEC-2” value at MEC-2 was “bound”. In addition, the “rescue of reduced touch sensitivity” value in test [1] is reported as “dependent on the cholesterol concentration”.

The record behind these values is US20090175845A1, “METHODS FOR IDENTIFYING COMPOUNDS THAT MODULATE PHB DOMAIN PROTEIN ACTIVITY AND COMPOSITIONS THEREOF” (THE TRUSTEES OF COLUMBIA UNIVERSITY IN THE CITY OF NEW YORK, priority 2005, published 2009).
